Several values for one entry are separate records, joined by “and”; a condition that tells them apart may be missing. Equal values may be shown once. Where a name gives a salt, the structure may show the parent alone. Read-outs that look alike come from different tables or passages of the source.
Key:
[1] = system: LPS-induced microglia activation; assay: Image-based assay of LPS-induced microglia activation (HTS and dose response); format: cell-based, rat; settings: for inhibition at 10 µM: Rattus norvegicus, Microglia, read-out: LPS % inhibition
primary rat microglia [2] = assay: Cell toxicity (dead cells, size <150 μm2) in coated fibrin (cFib) assay;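 on Fibrin % cell toxicity: share of dead cells sized under 150 µm2 at 10 µM in fibrin-stimulated microglia HTS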
[3] = system: fibrin- and LPS-induced microglia activation; assay: cells; format: cell-based, rat
primary rat microglia [4] = assay: Cell toxicity (dead cells, size <150 μm2) in LPS assay
[5] = system: fibrin-induced microglia activation; assay: Image-based assay of fibrin-induced microglia activation (HTS and dose response); format: cell-based, rat; settings: Rattus norvegicus, Microglia, primary microglia HTS, fibrin stimulation, read-out: Fibrin % inhibition
[6] = 48 h, primary microglia HTS, LPS stimulation, increased cell size (>800 μm^2) as marker of activation
[7] = primary microglia HTS, fibrin stimulation, decreased size (<150 μm^2) as marker of toxicity
[8] = quadrant by fibrin and LPS inhibition in HTS of 1907 compounds
[9] = primary microglia HTS, LPS stimulation, decreased size (<150 μm^2) as marker of toxicity
[10] = increased cell size (>800 μm^2) as marker of activation
[11] = 48 h, primary microglia HTS, LPS stimulation, activation = cell size >800 μm2
[12] = primary microglia HTS, fibrin stimulation, toxicity = cell size <150 μm2
[13] = primary microglia HTS, LPS stimulation, toxicity = cell size <150 μm2
[14] = primary microglia HTS, 10 μM, LPS-stimulated, cell size >800 μm^2 as marker of activation
[15] = HTS of 1907 compounds, quadrant by fibrin and LPS inhibition

CCCCC(CC)CNC(=N)NC(=N)NCCCCCCNC(=N)NC(=N)NCC(CC)CCCC (centres unmarked) [Alexidine Hydrochloride]
inhibition at 10 µM [1, 6]: 120% | Fibrin % cell toxicity (primary rat microglia [2]; [7]): 5% | Quadrant (FIG. 5b) [3, 8]: Q2 | LPS % cell toxicity (primary rat microglia [4]; [9]): 9% | inhibition at 10 µM [5, 10]: 108%

Nc1nc2ncc(CNc3ccc(C(=O)N[C@@H](CCC(=O)O)C(=O)O)cc3)nc2c(=O)[nH]1 [Folic Acid]
inhibition at 10 µM [1, 11]: 22% | Fibrin % cell toxicity (primary rat microglia [2]; [12]): 1% | Quadrant (FIG. 5b) [3, 8]: Q4 | LPS % cell toxicity (primary rat microglia [4]; [13]): 0% and 1%

NCC1(CC(=O)O)CCCCC1 [Gabapentin]
inhibition at 10 µM [1, 11]: 19% | Fibrin % cell toxicity (primary rat microglia [2]; [12]): 1% | Quadrant (FIG. 5b) [3, 8]: Q4 | LPS % cell toxicity (primary rat microglia [4]; [13]): 1% and 0%

OC[C@H]1O[C@@H](n2cnc3c(O)ncnc32)[C@H](O)[C@@H]1O [Inosine]
inhibition at 10 µM [1, 11]: -11% | inhibition at 10 µM [1, 6]: 115% | Fibrin % cell toxicity (primary rat microglia [2]; [12]): 1% | Fibrin % cell toxicity (primary rat microglia [2]; [7]): 7% | LPS % cell toxicity (primary rat microglia [4]; [13]): 0% | LPS % cell toxicity (primary rat microglia [4]; [9]): 2% | inhibition at 10 µM ([5]; activation = cell size >800 μm2): -31% | inhibition at 10 µM [5, 10]: 111%

CC[C@H](C)[C@H]1O[C@]2(CC[C@@H]1C)C[C@@H]1C[C@@H](C/C=C(\C)[C@@H](O[C@H]3C[C@H](OC)[C@@H](O[C@H]4C[C@H](OC)[C@@H](O)[C@H](C)O4)[C@H](C)O3)[C@@H](C)/C=C/C=C3\CO[C@@H]4[C@H](O)C(C)=C[C@@H](C(=O)O1)[C@]34O)O2 [Ivermectin]
LPS % inhibition ([1]; primary microglia HTS, LPS stimulation, activation = cell size >800 μm2): 10% and 19% | Fibrin % cell toxicity (primary rat microglia [2]; [12]): 1% and 0% | Quadrant (FIG. 5b) [3, 8]: Q4 | LPS % cell toxicity (primary rat microglia [4]; [13]): 0%

CC(=O)/N=c1/sc(S(N)(=O)=O)nn1C [Methazolamide]
inhibition at 10 µM [1, 6]: 10% | Fibrin % cell toxicity (primary rat microglia [2]; [7]): 1% | Quadrant (FIG. 5b) [3, 8]: Q4 | LPS % cell toxicity (primary rat microglia [4]; [9]): 0%

CCN1CCCC1CNC(=O)c1cc(S(N)(=O)=O)ccc1OC (centres unmarked) [Sulpiride]
inhibition at 10 µM [1, 14]: 11% | LPS % inhibition [1, 14]: 7% | Fibrin % cell toxicity (primary rat microglia [2]; primary microglia HTS, 10 μM, fibrin assay, cell size <150 μm^2 as marker of toxicity): 1% | Quadrant (FIG. 5b) [3, 15]: Q4 | LPS % cell toxicity (primary rat microglia [4]; primary microglia HTS, 10 μM, LPS assay, cell size <150 μm^2 as marker of toxicity): 0%

CCC(Cc1c(I)cc(I)c(N)c1I)C(=O)O (centres unmarked) [lopanic Acid]
IC50 ([1]; LPS-induced microglia activation, dose response, read-out: LPS IC50 (uM) (Suppl. Table 7)): > 20 µM | IC50 (primary rat microglia [2]; read-out: Cell Toxicity IC50 (uM) [cFib assay], cFib assay): > 20 µM | Quadrant (FIG. 5b) [3, 15]: Q3 | Cherry-picked Hit (Suppl. Table 7) ([3]; hit classification in microglia HTS): HIT (Hits were defined as molecules that exhibited greater than 50% inhibition of either fibrin or LPS activation) | IC50 (primary rat microglia [4]; read-out: Cell Toxicity IC50 (uM) [LPS assay], LPS assay): > 20 µM

Benzalkonium Chloride
LPS % inhibition ([1]; primary microglia HTS, LPS stimulation, increased cell size (>800 μm^2) as marker of activation): 122% | Fibrin % cell toxicity (primary rat microglia [2]; [7]): 71% | Quadrant (FIG. 5b) [3, 8]: Q2 | LPS % cell toxicity (primary rat microglia [4]; [9]): 31%

Carboplatin
LPS % inhibition ([1]; primary HTS, 10 μM, LPS-stimulated primary microglia): 4% and 7% | Fibrin % cell toxicity (primary rat microglia [2]; primary HTS, 10 μM, fibrin assay, dead cells size <150 μm2): 1% | Quadrant (FIG. 5b) ([3]; primary HTS, 10 μM): Q4 | LPS % cell toxicity (primary rat microglia [4]; primary HTS, 10 μM, LPS assay, dead cells size <150 μm2): 0%

Source: patent US20210330611A1, “THERAPY FOR NEUROLOGICAL DISEASES/DISORDERS” (priority 2020, published 2021)
